What was measured:
[1] = tested on: quail arteriosclerosis model; test: Effect test by use of an arteriosclerosis model (high-cholesterol-fed quails, aortic arch histology); format: in vivo
Excerpt: Cholesterol (Wako Pure Chemical Industries, Ltd.) and corn oil (Corn Germ Oil 100; Ajinomoto Co., Inc.) were incorporated into a commercially available feed (product of Natural Pet Foods, “Chicks and nestlings (Quail)”) so as to attain final concentrations of 2% and 15%, respectively, to thereby prepare a high-cholesterol feed.
Healthy quails were bred while being allowed to freely intake the high-cholesterol feed for eight weeks. From five weeks after the beginning of breeding, a solution of the test peptide (B-100FL) in saline (1.0 mg/mL) was administered to the brachial (wing) vein (200 μL; 200 μg/body) twice a week at the interval of two through three days. In a manner similar to that described above, only saline was administered to the quails of a control group.
After the quails had been bred for eight weeks, the head of each quail was cut for exsanguination, and an aorta sample was obtained. The aorta sample was immediately fixed in a fixing solution (10% formalin) for three days. Subsequently, a tissue specimen (a frozen section having a thickness of 4 μm) of the aortic arch (where arteriosclerosis foci are most likely to occur) was prepared. The tissue specimen was subjected to hematoxylin-and-eosin staining (routine staining), and to oil-red staining (fat staining), followed by examination under a microscope.

[2] = tested on: anti-apo B-100 monoclonal antibody (JI-H); test: Reactivity with anti-apo B-100 monoclonal antibody (JI-H) by ELISA on peptide-coated plate; format: binding; details: OD450 vs immobilized peptide concentration (FIG. 1)
Excerpt: (2) Reactivity with anti-apo b-100 Monoclonal Antibody (JI-H: J. Clin. Ligand Assay, 19 (3), 177 (1999))
The reactivity was confirmed through ELISA in accordance with a conventional method by using a plate coated with the peptide obtained above (B100FL) (see Japanese Patent Application Laid-Open (kokai) No. 4-104798).

HDL cholesterol = test: Reactivity with HDL: HDL sample reacted with peptide-bound affinity gel, analysis of unbound fraction; format: binding, Human; details: for reduction of total cholesterol level of HDL: Example 5, total cholesterol level of applied HDL sample 12.7 mg/dl
Procedure: The peptide obtained in (1) above (B100FL, 0.1 mg) was added to affinity gel (25 μL) to which an anti-apo B-100 monoclonal antibody (JI-H) had been immobilized, whereby a B100FL-bound affinity gel was prepared. A control gel was prepared by treating gel with PBS (not containing B100FL) in a manner similar to the above.
Human plasma (1 mL) was added to affinity gel (2 mL) to which an anti-apo A-I monoclonal antibody had been immobilized, to thereby cause HDL to be specifically bound to the gel. The bound HDL was eluted with 3M sodium thiocyanate, and the buffer of the thus-obtained eluent was changed to PBS through use of a column for desalting, to thereby prepare an HDL sample.
The aforementioned anti-apo A-I monoclonal antibody immobilized affinity gel and anti-apo B-100 monoclonal antibody (JI-H) immobilized affinity gel were prepared in accordance with a conventional method (Japanese Patent Publication (kokoku) No. 7-104351).
The HDL sample (containing 20 μg of apo A-I) was reacted with the B100FL-bound affinity gel for 30 minutes at room temperature. Subsequently, the reaction mixture was left to stand for 15 minutes to thereby cause the gel to precipitate, to thereby remove the gel from the reaction mixture.
Total cholesterol level: Total cholesterol level was determined with a reagent for measuring cholesterol level (L-TCII, Kyowa Medex Co., Ltd.) by means of an autoanalyzer (TBA20R; Toshiba).
Lipoprotein analysis: Lipoprotein was analyzed through HPLC of a lipoprotein analysis system (Lipopropax XL, eluent: TSK eluent LP-1, 1 mL/min., sample volume: 100 μL; Tosoh) by monitoring colors produced by cholesterol.
Protein concentration: Each protein concentration was determined by measuring absorbance (OD280); or through the Lowry method in which each sample (which had been delipidized with ethanol-ether) was subjected to color reaction.
Protein analysis: Protein was analyzed by SDS-gel electrophoresis. Specifically, each sample was subjected to delipidizing treatment and solubilized with 1% SDS, followed by treatment with a buffer (2% SDS/10% glycerol/0.005% BPB/20% 2-mercaptoethanol), to thereby prepare a sample for electrophoresis. The resultant sample was electrophoresed in a 4-20% gradient gel in accordance with a conventional method.
In a manner similar to that described in Example 1 (3), reactivity of PS509 (synthesized in Example 2) with HDL was examined (as a test peptide, B-100FL or PS509 was employed, and the total cholesterol level of the applied HDL sample was 12.7 mg/dl).

RAW264 cells = test: Cholesterol efflux test in RAW264 cells loaded with acetylated LDL; format: cell-based, mouse; details: foam with acetylated LDL; peptide 20, 2.0 or 0.2 μg/mL, 24 hours; supernatant cholesterol (FIG. 4)
Procedure: The aforementioned peptides were examined with regard to cholesterol efflux effect from RAW264 cells (a model of atherosclerosis).
Specifically, RAW264 cells (mouse monocytic leukemia cell strain) were added to DMEM medium that had been supplemented with 10% FBS, to thereby prepare a specimen having a concentration of 4×10^5 cells/mL. An aliquot of the specimen (1 mL) was added to each well of a 12-well plate, followed by culture for two days in a CO2 incubator (37° C.). The medium in each well was removed, and the cells in the well were washed once with 1 mL of DMEM containing 0.2% BSA and 20 mM glutamine (hereinafter referred to as “DMEM”). Subsequently, a solution of acetylated LDL in DMEM (40 μg/mL, 1 mL) was added to each well, followed by culture for 24 hours in a CO2 incubator (37° C.), whereby acetylated LDL entered into the cells. The cells were washed twice with PBS supplemented with 0.2% BSA. Thereafter, a solution of dibutyl cAMP in DMEM (0.3 mM, 1 mL) was added to each well, followed by incubation for 2 hours in a CO2 incubator (37° C.).
The test peptide (20 μL) was added to each well so as to attain a final concentration of 20, 2.0, or 0.2 μg/mL, followed by culture for 24 hours in a CO2 incubator (37° C.).
After 24 hours, the supernatant of each well was collected in a microtube, and the microtube was centrifuged for five minutes at 10,000 rpm. The cholesterol level of the supernatant was measured by means of the autoanalyzer described above.
Each test peptide was dissolved in DMSO (5 mg/mL), and the thus-formed solution was diluted with DMEM so as to attain a concentration of 1 mg/mL. Subsequently, the resultant solution was diluted 10-fold or 100-fold with DMEM, to thereby prepare a test sample. Moreover, in order to prepare a control sample, only DMSO was diluted with DMEM so as to attain a final concentration of 0.4, 0.04, or 0.004%; and in order to prepare a positive control sample, delipid HDL was diluted with DMEM so as to attain a concentration of 2.5, 5.0, or 10 μg/mL.

[3] = 200 μg/body i.v. twice a week from week 5 to 8, aortic arch section

## LLDQLGTTISFERINDVLEHVKHFVINLIGDFEVAEKINAFRAKVHEL IE R (LLDQLGTTISFERINDVLEHVKHFVINLIGDFEVAEKINAFRAKVHELIER) [P51, 51 amino acid residues, the 2,297th to the 2,347th amino acid residues of apo B-100]
[1]; 200 μg/body i.v. (wing vein) twice a week from week 5 to 8 of high-cholesterol feed, aortic arch section
  lipid accumulation in the internal tunica: a small amount of lipid accumulation was observed
[1]; [3]
  morphological disorder of the vessel internal tunica: no morphological disorder
  thickening of the internal tunica and lipid infiltration into the middle tunica: absent
[2]
  reactivity with JI-H: specific reactivity
HDL cholesterol
  reduction of total cholesterol level of HDL: about 72 percentage points
HDL cholesterol; FIG. 2, HDL sample treated with B100FL-bound gel
  peak attributed to cholesterol (HDL-C) in lipoprotein analysis: does not include a peak
HDL cholesterol; HDL sample treated with B100FL-bound gel vs control gel
  total cholesterol level relative to HDL sample treated with the control gel: about 1/15
HDL cholesterol; HDL-cholesterol by lipoprotein analysis (HPLC) of fraction that did not bind to the B100FL gel
  HDL-C: 243.2 Area
HDL cholesterol; conclusion from cholesterol, lipoprotein and SDS-gel analysis
  interaction with cholesterol and cholesterol ester of HDL: has an effect of effluxing cholesterol and cholesterol ester from apoprotein particles of HDL
HDL cholesterol; fraction that did not bind to the B100FL gel, HDL sample containing 20 μg apo A-I, 30 min room temperature
  Cholesterol (total cholesterol level): 0.25 mg/dL
RAW264 cells
  cholesterol efflux effect from RAW264 cells: strong cholesterol efflux effect

## FERINDVLEHVKHFVINLIGDFEVAEKINA (FERINDVLEHVKHFVINLIGDFEVAEKINA) [PS509, Apo B-100 position 2,307–2,336]
HDL cholesterol
  reduction of total cholesterol level of HDL: about 48 percentage points
RAW264 cells
  cholesterol efflux effect from RAW264 cells: strong cholesterol efflux effect

## DFEVAEKINA FRAKVHEL IE R [P21]
RAW264 cells
  cholesterol efflux effect from RAW264 cells: not to exhibit the effect

## LLDQLGTTIS FERIND (LLDQLGTTISFERIND) [PS507, Apo B-100 position 2,297–2,312]
RAW264 cells
  cholesterol efflux effect from RAW264 cells: not to exhibit the effect

## LLDQLGTTISFERINDVLEHVKHF (LLDQLGTTISFERINDVLEHVKHF) [PS506, Apo B-100 position 2,297–2,320]
RAW264 cells
  cholesterol efflux effect from RAW264 cells: not to exhibit the effect

## LLDQLGTTISFERINDVLEHVKHFVINLIG (LLDQLGTTISFERINDVLEHVKHFVINLIG) [PS505, Apo B-100 position 2,297–2,326]
RAW264 cells
  cholesterol efflux effect from RAW264 cells: strong cholesterol efflux effect

## EKINA FRAKVHEL IE R [PS508]
RAW264 cells
  cholesterol efflux effect from RAW264 cells: not to exhibit the effect

Reference: patent US7241861B2, “High density lipoprotein-reactive peptides” (Japan Immunoresearch Laboratories Co., Ltd., priority 2001, dated 2007)
